As a reminder, the IC50 is the concentration that inhibits the measured activity by half.

The source of these data is patent US10961236B2, “(S)-2-(1-cyclopropylethyl)-5-(4-methyl-2-((6-(2-oxopyrrolidin-1-yl)pyridin-2-yl)amino) thiazol-5-yl)-7-(methylsulfonyl)isoindolin-1-one as a phosphatidylinositol 3-kinase inhibitor” (AstraZeneca AB, priority 2016, dated 2021).

Holding throughout (format): biochemical
Experiment [1] has as its target recombinant human PI3Kβ (6-His(p110-p85α)) (Homo sapiens (Human), UniProt P42338). Kind of experiment: Enzymatic activity assay for recombinant human PI3Kβ (ADP-Glo). To be noted: 1.2 nM PI3Kβ, 20 μM ATP, 80 μM DiC8-PIP2, ADP-Glo. How it is done:
(§1) Enzymatic Activity Assay for Recombinant Human PI3K α, β, δ and γ.
(§2) The activity of recombinant human PI3Kγ ((aa144-1102)-6His) and PI3Kα, β, δ (6-His(p110-p85α)) was determined by measuring the ADP level after phosphorylation of DiC8-PIP2 using a commercially available ADP-Glo™ kit from Promega. The assay was carried out in white low volume 384 well plates in a final volume of 14 μl at R.T. The assay conditions contained the following: 50 mM Tris buffer pH 7.4, 2.1 mM DTT, 3 mM MgCl2, 0.05% CHAPS, 20 μM ATP, 80 μM DiC8-PIP2 and 1.2 nM PI3Kα, β, γ or 0.6 nM PI3Kδ. Potential inhibitors were made up in DMSO and then diluted in the assay to give a final concentration of not exceeding 1% (v/v) DMSO. […] Routinely, inhibitors were pre-incubated with 3 μl of enzyme for 15 min prior to the addition of 2 μl substrate mixture for a further 60 min enzyme reaction. The phosphorylation was stopped with the addition of 3 μl ADP-Glo™ reagent (stop solution) followed by a 40 min incubation. Prior to detection 6 μl of ADP-Glo™ Kinase Detection Reagent was added and the plates were read in a micro plate reader using a Luminescence filter. All additions were followed by a short centrifugation step.
For orientation: In ADP-Glo the light output rises with the ADP produced.

Experiment [2] concerns the target recombinant human PI3Kα (6-His(p110-p85α)) (Homo sapiens (Human), UniProt P42336). As to the kind of experiment: Enzymatic activity assay for recombinant human PI3Kα (ADP-Glo). The note with it: 1.2 nM PI3Kα, 20 μM ATP, 80 μM DiC8-PIP2, ADP-Glo. How it is done: as §1, §2
The target of experiment [3] is recombinant human PI3Kγ ((aa144-1102)-6His) (Homo sapiens (Human), UniProt P48736). Kind of experiment: Enzymatic activity assay for recombinant human PI3Kγ (ADP-Glo). To be noted: 1.2 nM PI3Kγ, 20 μM ATP, 80 μM DiC8-PIP2, ADP-Glo. How it is done: as §1
as §2, with “PI3Kδ.” for “PI3Kδ. Potential inhibitors were made up in DMSO and then diluted in the assay to give a final concentration of not exceeding 1% (v/v) DMSO.”

Experiment [4] has as its target recombinant human PI3Kδ (6-His(p110-p85α)) (Homo sapiens (Human), UniProt O00329). Kind of experiment: Enzymatic activity assay for recombinant human PI3Kδ (ADP-Glo). To be noted: 0.6 nM PI3Kδ, 20 μM ATP, 80 μM DiC8-PIP2, ADP-Glo. How it is done: as §1
as §2, with “PI3Kδ.” for “PI3Kδ. Potential inhibitors were made up in DMSO and then diluted in the assay to give a final concentration of not exceeding 1% (v/v) DMSO.”

Sequence of recombinant human PI3Kβ (6-His(p110-p85α)) (P42338 whole entry): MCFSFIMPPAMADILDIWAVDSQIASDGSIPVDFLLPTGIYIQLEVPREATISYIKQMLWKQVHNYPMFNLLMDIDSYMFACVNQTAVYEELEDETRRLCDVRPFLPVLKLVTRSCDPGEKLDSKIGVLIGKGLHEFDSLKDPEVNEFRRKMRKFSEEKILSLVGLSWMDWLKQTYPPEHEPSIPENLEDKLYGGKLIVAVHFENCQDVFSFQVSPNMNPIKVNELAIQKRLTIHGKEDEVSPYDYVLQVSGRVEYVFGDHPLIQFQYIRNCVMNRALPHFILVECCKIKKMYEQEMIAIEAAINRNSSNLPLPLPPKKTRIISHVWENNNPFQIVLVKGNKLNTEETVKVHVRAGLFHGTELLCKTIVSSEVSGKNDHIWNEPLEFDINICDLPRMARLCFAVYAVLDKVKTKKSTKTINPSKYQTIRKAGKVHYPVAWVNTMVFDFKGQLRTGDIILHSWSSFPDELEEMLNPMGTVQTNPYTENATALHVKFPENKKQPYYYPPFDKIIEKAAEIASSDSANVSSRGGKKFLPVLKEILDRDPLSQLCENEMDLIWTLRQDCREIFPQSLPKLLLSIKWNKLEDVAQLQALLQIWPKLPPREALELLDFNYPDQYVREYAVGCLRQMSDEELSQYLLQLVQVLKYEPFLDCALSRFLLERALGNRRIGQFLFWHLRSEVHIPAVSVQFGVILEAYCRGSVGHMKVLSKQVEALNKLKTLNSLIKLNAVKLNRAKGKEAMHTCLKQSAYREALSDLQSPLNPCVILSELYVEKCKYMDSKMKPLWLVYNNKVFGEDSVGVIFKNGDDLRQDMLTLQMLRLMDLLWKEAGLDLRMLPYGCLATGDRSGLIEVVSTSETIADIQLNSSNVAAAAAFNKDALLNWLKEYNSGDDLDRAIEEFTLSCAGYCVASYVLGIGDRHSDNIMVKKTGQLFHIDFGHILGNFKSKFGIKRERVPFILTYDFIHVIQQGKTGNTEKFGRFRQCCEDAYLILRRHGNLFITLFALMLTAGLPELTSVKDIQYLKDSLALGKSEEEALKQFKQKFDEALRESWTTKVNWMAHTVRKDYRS
Sequence of recombinant human PI3Kβ (6-His(p110-p85α)) (P27986 whole entry partner): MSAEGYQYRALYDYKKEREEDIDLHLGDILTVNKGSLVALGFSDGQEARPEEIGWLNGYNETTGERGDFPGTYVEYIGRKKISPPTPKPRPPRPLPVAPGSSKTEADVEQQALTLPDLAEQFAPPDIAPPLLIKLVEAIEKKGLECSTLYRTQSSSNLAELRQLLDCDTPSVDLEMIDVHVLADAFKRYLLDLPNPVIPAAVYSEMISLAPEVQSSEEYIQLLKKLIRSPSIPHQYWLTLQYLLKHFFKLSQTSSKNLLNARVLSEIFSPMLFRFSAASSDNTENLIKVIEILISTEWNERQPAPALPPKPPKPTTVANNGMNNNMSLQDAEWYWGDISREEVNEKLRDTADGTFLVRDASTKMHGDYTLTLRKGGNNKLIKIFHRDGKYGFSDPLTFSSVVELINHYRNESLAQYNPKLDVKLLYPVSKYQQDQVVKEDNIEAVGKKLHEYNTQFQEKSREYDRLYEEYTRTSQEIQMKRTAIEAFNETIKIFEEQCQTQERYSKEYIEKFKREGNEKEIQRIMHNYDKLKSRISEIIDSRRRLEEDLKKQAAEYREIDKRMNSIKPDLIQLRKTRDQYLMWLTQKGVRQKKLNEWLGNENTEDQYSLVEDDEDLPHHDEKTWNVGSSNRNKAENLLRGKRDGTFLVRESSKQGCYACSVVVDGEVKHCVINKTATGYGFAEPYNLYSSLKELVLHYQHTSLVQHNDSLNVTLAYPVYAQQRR
Sequence of recombinant human PI3Kδ (6-His(p110-p85α)) (O00329 whole entry): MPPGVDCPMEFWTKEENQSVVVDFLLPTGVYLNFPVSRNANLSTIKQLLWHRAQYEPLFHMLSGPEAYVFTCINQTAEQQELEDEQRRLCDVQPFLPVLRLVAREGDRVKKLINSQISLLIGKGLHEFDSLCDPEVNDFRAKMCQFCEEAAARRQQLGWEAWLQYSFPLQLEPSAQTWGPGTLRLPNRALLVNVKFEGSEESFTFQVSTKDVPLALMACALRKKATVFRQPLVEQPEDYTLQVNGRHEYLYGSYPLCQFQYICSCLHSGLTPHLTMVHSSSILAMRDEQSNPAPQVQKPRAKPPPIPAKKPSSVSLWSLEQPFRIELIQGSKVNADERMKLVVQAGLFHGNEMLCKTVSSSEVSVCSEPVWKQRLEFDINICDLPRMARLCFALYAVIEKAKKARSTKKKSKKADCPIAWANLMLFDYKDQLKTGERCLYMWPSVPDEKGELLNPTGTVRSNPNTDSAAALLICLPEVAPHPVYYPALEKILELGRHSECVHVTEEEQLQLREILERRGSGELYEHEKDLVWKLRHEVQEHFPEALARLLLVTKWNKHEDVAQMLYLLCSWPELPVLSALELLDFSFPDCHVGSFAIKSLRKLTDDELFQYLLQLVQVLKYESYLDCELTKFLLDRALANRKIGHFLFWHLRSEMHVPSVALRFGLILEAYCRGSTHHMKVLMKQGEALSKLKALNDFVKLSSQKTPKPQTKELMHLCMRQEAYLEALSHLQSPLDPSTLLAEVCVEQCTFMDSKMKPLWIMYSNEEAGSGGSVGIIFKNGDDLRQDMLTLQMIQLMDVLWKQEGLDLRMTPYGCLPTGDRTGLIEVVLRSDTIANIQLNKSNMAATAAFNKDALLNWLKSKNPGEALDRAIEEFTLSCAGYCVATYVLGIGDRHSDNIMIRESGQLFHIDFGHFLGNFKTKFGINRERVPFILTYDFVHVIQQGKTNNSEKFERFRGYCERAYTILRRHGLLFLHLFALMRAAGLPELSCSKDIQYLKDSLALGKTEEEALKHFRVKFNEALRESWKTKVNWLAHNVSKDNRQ
Sequence of recombinant human PI3Kδ (6-His(p110-p85α)) (P27986 whole entry partner): as the sequence (P27986 whole entry partner) above
Sequence of recombinant human PI3Kγ ((aa144-1102)-6His) (P48736 144-1102): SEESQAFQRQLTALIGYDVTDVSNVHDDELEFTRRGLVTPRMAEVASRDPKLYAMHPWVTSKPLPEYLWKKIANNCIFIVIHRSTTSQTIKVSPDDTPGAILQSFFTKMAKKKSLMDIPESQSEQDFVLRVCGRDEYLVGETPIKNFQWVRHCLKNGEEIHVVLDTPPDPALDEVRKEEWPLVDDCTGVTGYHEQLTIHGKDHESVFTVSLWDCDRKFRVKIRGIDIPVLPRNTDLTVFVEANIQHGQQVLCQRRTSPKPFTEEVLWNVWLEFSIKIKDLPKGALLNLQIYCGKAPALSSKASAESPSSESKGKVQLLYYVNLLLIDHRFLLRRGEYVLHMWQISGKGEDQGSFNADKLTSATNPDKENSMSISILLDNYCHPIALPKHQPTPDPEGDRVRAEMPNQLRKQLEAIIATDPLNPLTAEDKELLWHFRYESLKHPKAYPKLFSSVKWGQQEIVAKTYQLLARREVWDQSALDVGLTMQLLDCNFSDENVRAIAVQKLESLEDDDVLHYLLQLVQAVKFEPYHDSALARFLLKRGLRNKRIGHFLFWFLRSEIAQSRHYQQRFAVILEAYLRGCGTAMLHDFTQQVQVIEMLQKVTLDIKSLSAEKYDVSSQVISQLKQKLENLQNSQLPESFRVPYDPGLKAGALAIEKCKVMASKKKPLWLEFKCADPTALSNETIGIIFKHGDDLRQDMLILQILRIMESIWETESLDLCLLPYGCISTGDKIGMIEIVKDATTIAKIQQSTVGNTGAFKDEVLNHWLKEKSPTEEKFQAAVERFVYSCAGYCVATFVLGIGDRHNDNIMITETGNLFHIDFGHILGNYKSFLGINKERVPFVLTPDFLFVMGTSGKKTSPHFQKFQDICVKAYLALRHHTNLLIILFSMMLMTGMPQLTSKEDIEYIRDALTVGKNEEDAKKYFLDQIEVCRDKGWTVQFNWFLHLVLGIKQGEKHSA
Sequence of recombinant human PI3Kα (6-His(p110-p85α)) (P42336 whole entry, the tested form may be a part): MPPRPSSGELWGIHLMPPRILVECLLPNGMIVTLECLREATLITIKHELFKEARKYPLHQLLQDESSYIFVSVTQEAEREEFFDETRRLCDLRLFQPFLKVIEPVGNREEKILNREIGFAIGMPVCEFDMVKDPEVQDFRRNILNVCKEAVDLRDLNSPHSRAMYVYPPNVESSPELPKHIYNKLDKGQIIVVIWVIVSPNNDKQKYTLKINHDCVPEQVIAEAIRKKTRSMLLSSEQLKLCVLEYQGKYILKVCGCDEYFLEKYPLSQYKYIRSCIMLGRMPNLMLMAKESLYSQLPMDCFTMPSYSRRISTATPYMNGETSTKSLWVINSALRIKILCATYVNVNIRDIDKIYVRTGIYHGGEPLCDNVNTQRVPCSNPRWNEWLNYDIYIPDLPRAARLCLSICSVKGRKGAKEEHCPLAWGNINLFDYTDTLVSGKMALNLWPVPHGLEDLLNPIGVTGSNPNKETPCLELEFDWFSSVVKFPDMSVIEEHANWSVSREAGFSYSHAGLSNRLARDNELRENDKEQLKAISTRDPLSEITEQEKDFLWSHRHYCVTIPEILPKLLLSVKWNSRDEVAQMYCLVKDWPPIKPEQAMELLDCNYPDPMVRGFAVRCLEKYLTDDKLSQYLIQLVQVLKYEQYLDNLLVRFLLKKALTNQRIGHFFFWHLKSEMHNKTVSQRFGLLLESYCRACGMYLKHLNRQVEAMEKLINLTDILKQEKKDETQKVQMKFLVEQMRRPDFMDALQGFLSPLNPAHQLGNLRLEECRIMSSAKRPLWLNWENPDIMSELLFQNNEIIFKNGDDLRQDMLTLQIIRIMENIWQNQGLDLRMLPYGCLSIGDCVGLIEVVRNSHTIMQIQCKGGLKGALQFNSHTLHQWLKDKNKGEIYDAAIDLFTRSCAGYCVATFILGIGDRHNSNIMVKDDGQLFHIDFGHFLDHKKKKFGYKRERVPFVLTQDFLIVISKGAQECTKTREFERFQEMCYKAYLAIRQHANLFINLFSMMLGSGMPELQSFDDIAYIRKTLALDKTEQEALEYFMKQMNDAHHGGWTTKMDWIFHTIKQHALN
Sequence of recombinant human PI3Kα (6-His(p110-p85α)) (P27986 whole entry partner, the tested form may be a part): as the sequence (P27986 whole entry partner) above

As for `Cc1nc(Nc2cccc(N3CCNC3=O)n2)sc1-c1cc2c(c(S(=O)(=O)NC3COC3)c1)C(=O)N([C@@H](C)C1CC1)C2` [Example 34, 2-[(1S)-1-Cyclopropylethyl]-6-(4-methyl-2-{[6-(2-oxoimidazolidin-1-yl)pyridin-2-yl]amino}-1,3-thiazol-5-yl)-N-(oxetan-3-yl)-3-oxo-2,3-dihydro-1H-isoindole-4-sulfonamide], the IC50 in experiment [1] was found to be 0.927 µM; in experiment [2], 0.03 µM; in experiment [3], 0.0008 µM; in experiment [4], 0.0005 µM.

Turning to `CNS(=O)(=O)c1cc(-c2sc(Nc3cccc(N(C)C(C)=O)n3)nc2C)cc2c1C(=O)N([C@@H](C)C1CC1)C2` [Example 13, N-{6-[(5-{2-[(1S)-1-Cyclopropylethyl]-7-(methylsulfamoyl)-1-oxo-2,3-dihydro-1H-isoindol-5-yl}-4-methyl-1,3-thiazol-2-yl)amino]pyridin-2-yl}-N-methylacetamide], the IC50 worked out at 1.57 µM in experiment [1], 0.068 µM in experiment [2], 0.0008 µM in experiment [3] and 0.0011 µM in experiment [4].

On to `CNS(=O)(=O)c1cc(-c2sc(Nc3cccc(N4CCOCC4=O)n3)nc2C)cc2c1C(=O)N([C@@H](C)C(C)(C)C)C2` [Example 39, 2-[(2S)-3,3-Dimethylbutan-2-yl]-N-methyl-6-(4-methyl-2-{[6-(3-oxomorpholin-4-yl)pyridin-2-yl]amino}-1,3-thiazol-5-yl)-3-oxo-2,3-dihydro-1H-isoindole-4-sulfonamide], for which the IC50 in experiment [1] turned out to be 10.4 µM; in experiment [2], 0.485 µM; in experiment [3] it was 0.0014 µM; in experiment [4], 0.0089 µM.

For `CNS(=O)(=O)c1cc(-c2sc(Nc3cccc(N(C)C(=O)COC)n3)nc2C)cc2c1C(=O)N([C@@H](C)C1CC1)C2` [Example 14, N-{6-[(5-{2-[(1S)-1-Cyclopropylethyl]-7-(methylsulfamoyl)-1-oxo-2,3-dihydro-1H-isoindol-5-yl}-4-methyl-1,3-thiazol-2-yl)amino]pyridin-2-yl}-2-methoxy-N-methylacetamide], the IC50 in experiment [1] was determined as 0.724 µM; in experiment [2], 0.08 µM; in experiment [3], 0.0009 µM; in experiment [4], 0.0004 µM.

`Cc1nc(Nc2cccc(N3Cc4ncccc4C3=O)n2)sc1-c1cc2c(c(S(C)(=O)=O)c1)C(=O)N([C@@H](C)C1CC1)C2` [Example 9, 6-{6-[(5-{2-[(1S)-1-Cyclopropylethyl]-7-(methylsulfonyl)-1-oxo-2,3-dihydro-1H-isoindol-5-yl}-4-methyl-1,3-thiazol-2-yl)amino]pyridin-2-yl}-6,7-dihydro-5H-pyrrolo[3,4-b]pyridin-5-one]: the IC50 in experiment [1] worked out at 33.3 µM; in experiment [2], 11.4 µM; in experiment [3], 0.001 µM; in experiment [4], 0.0027 µM.

Regarding `Cc1nc(Nc2cccc(N3CCN(C)C3=O)n2)sc1-c1cc2c(c(S(C)(=O)=O)c1)C(=O)N([C@@H](C)C1CC1)C2` [Example 5, 2-[(1S)-1-Cyclopropylethyl]-5-(4-methyl-2-{[6-(3-methyl-2-oxoimidazolidin-1-yl)pyridin-2-yl]amino}-1,3-thiazol-5-yl)-7-(methylsulfonyl)-2,3-dihydro-1H-isoindol-1-one], the IC50 in experiment [1] stood at 4.71 µM; in experiment [2], 0.038 µM; in experiment [3], 0.0012 µM; in experiment [4], 0.0007 µM.

In the case of `CC[C@H](C)N1Cc2cc(-c3sc(Nc4cccc(N5CCOCC5=O)n4)nc3C)cc(S(=O)(=O)NC)c2C1=O` [Example 62, 2-[(2S)-Butan-2-yl]-N-methyl-6-(4-methyl-2-{[6-(3-oxomorpholin-4-yl)pyridin-2-yl]amino}-1,3-thiazol-5-yl)-3-oxo-2,3-dihydro-1H-isoindole-4-sulfonamide], the IC50 came out at 1.15 µM in experiment [1], 0.162 µM in experiment [2], 0.0008 µM in experiment [3] and 0.0021 µM in experiment [4].

On to `CNS(=O)(=O)c1cc(-c2sc(Nc3cccc(N(C)C(=O)[C@H](C)OC)n3)nc2C)cc2c1C(=O)N([C@@H](C)C1CC1)C2` [Example 16, (2S)—N-{6-[(5-{2-[(1S)-1-Cyclopropylethyl]-7-(methylsulfamoyl)-1-oxo-2,3-dihydro-1H-isoindol-5-yl}-4-methyl-1,3-thiazol-2-yl)amino]pyridin-2-yl}-2-methoxy-N-methylpropanamide], for which the IC50 in experiment [1] was determined as 0.539 µM; in experiment [2], 0.055 µM; in experiment [3], 0.0012 µM; in experiment [4] it was 0.0008 µM.

Consider `CCN(C(=O)COC)c1cccc(Nc2nc(C)c(-c3cc4c(c(S(=O)(=O)NC)c3)C(=O)N([C@@H](C)C3CC3)C4)s2)n1` [Example 18, N-{6-[(5-{2-[(1S)-1-Cyclopropylethyl]-7-(methylsulfamoyl)-1-oxo-2,3-dihydro-1H-isoindol-5-yl}-4-methyl-1,3-thiazol-2-yl)amino]pyridin-2-yl}-N-ethyl-2-methoxyacetamide], for which the IC50 is 0.231 µM in experiment [1], 0.025 µM in experiment [2], 0.0008 µM in experiment [3] and 0.0003 µM in experiment [4].

Take `CNS(=O)(=O)c1cc(-c2sc(Nc3cccc(N4CC(C)(C)NCC4=O)n3)nc2C)cc2c1C(=O)N([C@@H](C)C1CC1)C2` [Example 48, 2-[(1S)-1-Cyclopropylethyl]-6-(2-{[6-(5,5-dimethyl-2-oxopiperazin-1-yl)pyridin-2-yl]amino}-4-methyl-1,3-thiazol-5-yl)-N-methyl-3-oxo-2,3-dihydro-1H-isoindole-4-sulfonamide]: the IC50 is 0.199 µM in experiment [1], 0.019 µM in experiment [2], 0.0015 µM in experiment [3] and 0.0007 µM in experiment [4].

Regarding `CNS(=O)(=O)c1cc(-c2sc(Nc3cccc(N4CCNC4=O)n3)nc2C)cc2c1C(=O)N([C@@H](C)C(F)(F)F)C2` [Example 63, N-Methyl-6-(4-methyl-2-{[6-(2-oxoimidazolidin-1-yl)pyridin-2-yl]amino}-1,3-thiazol-5-yl)-3-oxo-2-[(2S)-1,1,1-trifluoropropan-2-yl]-2,3-dihydro-1H-isoindole-4-sulfonamide], the IC50 is 0.274 µM in experiment [1], 0.032 µM in experiment [2], 0.0012 µM in experiment [3] and 0.0007 µM in experiment [4].

On to `CNS(=O)(=O)c1cc(-c2sc(Nc3cccc(N4CCN[C@@H](C)C4=O)n3)nc2C)cc2c1C(=O)N([C@@H](C)C1CC1)C2` [Example 44, 2-[(1S)-1-Cyclopropylethyl]-N-methyl-6-[4-methyl-2-({6-[(3S)-3-methyl-2-oxopiperazin-1-yl]pyridin-2-yl}amino)-1,3-thiazol-5-yl]-3-oxo-2,3-dihydro-1H-isoindole-4-sulfonamide], for which the IC50 came out at 0.518 µM in experiment [1], 0.072 µM in experiment [2], 0.0012 µM in experiment [3] and 0.0015 µM in experiment [4].

In the case of `CCNS(=O)(=O)c1cc(-c2sc(Nc3cccc(N4CCNCC4=O)n3)nc2C)cc2c1C(=O)N([C@@H](C)C1CC1)C2` [Example 50, 2-[(1S)-1-Cyclopropylethyl]-N-ethyl-6-(4-methyl-2-{[6-(2-oxopiperazin-1-yl)pyridin-2-yl]amino}-1,3-thiazol-5-yl)-3-oxo-2,3-dihydro-1H-isoindole-4-sulfonamide], the IC50 amounted to 0.271 µM in experiment [1], 0.054 µM in experiment [2], 0.0014 µM in experiment [3] and 0.0008 µM in experiment [4].

For the compound `CNS(=O)(=O)c1cc(-c2sc(Nc3cccc(N4CCCC4=O)n3)nc2C)cc2c1C(=O)N([C@@H](C)C(F)(F)F)C2` [Example 25, N-Methyl-6-(4-methyl-2-{[6-(2-oxopyrrolidin-1-yl)pyridin-2-yl]amino}-1,3-thiazol-5-yl)-3-oxo-2-[(2S)-1,1,1-trifluoropropan-2-yl]-2,3-dihydro-1H-isoindole-4-sulfonamide], the IC50 in experiment [1] turned out to be 0.505 µM; in experiment [2], 0.07 µM; in experiment [3], 0.0011 µM; in experiment [4], 0.0007 µM.
